Legend:
[1] = system: H-Ras-V12 transformed p53−/− MEFs; experiment: Tumor formation after implantation of chemotherapy-treated cells in nude mice; format: in vivo; conditions: fifteen days; for tumor formation: MAPKAP kinase-2 siRNA-transfected cells pre-treated with 1 μM cisplatin or 0.1 μM doxorubicin before implantation; for size and weight of tumors relative to tumors formed by untreated cells: control siRNA-transfected cells pre-treated with 1 μM cisplatin or 0.1 μM doxorubicin before implantation
Experimental: To establish whether the absence of MAPKAP kinase-2 could also enhance the anti-tumorigenic effect of cisplatin or doxorubicin in vivo, we introduced control or MAPKAP kinase-2 siRNAs into H-Ras-V12 transformed p53^−/− MEFs, treated them with either vehicle alone, 1 μM cisplatin or 0.1 μM doxorubicin, and then implanted them into nude mice. Each animal received two injections of MAPKAP kinase-2 siRNA-transfected cells (left flank), and two injections of control siRNA transfected cells (right flank), and tumor formation was assessed at fifteen days. […] In general, the size of the tumors resulting from injection of MAPKAP kinase-2 depleted cells was larger than that from control siRNA-transfected cells (FIGS. 17A, 17B, and 17D).
Murine tumor models. H-Ras-V 12-transformed p53^−/− MEFs were used for in vivo tumor formation assays. Cells were transfected with siRNA oligonucleotides against GFP or murine MAPKAP kinase-2 for forty-eight hours, then mock treated or incubated with 0.1 μM doxorubicin or 1 μM cisplatin for eight hours, washed three times in growth media, three times in PBS, trypsinized, and resuspended at a concentration of 10^7 cells/ml in PBS. 10^6 cells were subcutaneously injected into the flanks of nude mice (Ncr nu/nu, Taconic).

[2] = system: p53−/− MEFs; experiment: FACS cell cycle analysis (PI, phospho-histone H3) in p53−/− MEFs; format: cell-based, mouse; conditions: MK2 depleted p53−/− MEFs; 10 μM drug, nocodazole added three hours later, thirty hours
Experimental: FACS analysis. UV irradiation was performed at 254 nm (UV-C) using a Stratalinker 2400 (Stratagene). U2OS cells were fixed in 70% ethanol overnight at −20° C., permeabilized with PBS containing 0.2% Triton X-100 for twenty minutes at 4° C., blocked with 2% FBS in PBS, and incubated with 1 μg of anti-phospho-histone H3 per 10^6 cells for sixty minutes on ice. Following washing, cells were incubated with FITC-conjugated goat anti-rabbit antibody (diluted 1:500) for thirty minutes on ice, washed, and resuspended in PBS containing 50 μg/ml PI for twenty minutes immediately prior to FACS analysis. Analysis was performed using a Becton Dickinson FACS machine with CellQuest software.
To investigate the molecular mechanisms involved in MK2 dependent responses to DNA lesions, we examined cell cycle profiles of control and MK2 depleted p53^−/− MEFs. Asynchronous MK2- or control knock-down p53^−/− MEFs were mock treated or exposed to doxorubicin for thirty hour, and cell cycle distribution monitored by FACS. In one set of experiments the spindle poison nocodazole was added to the media three hours after addition of doxorubicin, to cause any cells progressing through the cell cycle to arrest in mitosis. DNA content was monitored by PI staining; phospho-histone-H3 staining was used as an indicator of mitotic entry. […]

[3] = system: p38 MAPK/MK2 pathway; experiment: Immunoblot of p38 MAPK/MK2 activation after DNA-damaging drugs in U2OS cells; format: cell-based, human; conditions: U2OS cells, 10 μM drug
Experimental: 14-3-3 pull-down assays, immunoblotting, and immunofluorescence. U2OS cells were lysed in lysis buffer: 50 mM Tris/HCl, pH7.8, 150 mM NaCl, 1.0% NP-40, 5 mM EDTA, 2 mM DTT, 8 μg/ml pepstatin, 8 μg/ml aprotinin, 8 μg/ml leupeptin, 2 mM Na3VO4, 10 mM NaF, 1 μM microcystin for twenty minutes at 4° C. Clarified lysates (0.5-2 mg protein) were incubated with 20 μL glutathione beads or amylose beads containing 10-20 μg 14-3-3-GST or 14-3-3-MBP, respectively, for 120 minutes at 4° C. Following washing, lysates and bead-bound proteins were analysed by SDS-PAGE, followed by transfer to PVDF membranes and immunoblotted with the indicated antibodies. For immunofluorescence experiments, U2OS cells were seeded onto 18 mm^2 coverslips, irradiated or mock-treated, fixed, extracted, and immunostained as described previously (Clapperton et al., Nat. Struct. Mol. Biol., 11:512-518, 2004).

Row | SMILES | tumor formation [1] | size and weight of tumors relative to tumors formed by untreated cells [1] [%] | cells staining positively for phospho-histone H3 [2] [%] | time to MK2 activation (reduction in electrophoretic mobility, pThr-344) [3]
1 | N.N.[Cl][Pt][Cl] [cisplatin] | completely eliminated the formation of tumors | ~35 | ~25 | Within one hour
2 | COc1cccc2c1C(=O)c1c(O)c3c(c(O)c1C2=O)C[C@@](O)(C(=O)CO)C[C@@H]3O[C@H]1C[C@H](N)[C@H](O)[C@H](C)O1 [doxorubicin] | completely eliminated the formation of tumors | ~35 | 28.5 | Within one hour

From US8440610B2, “Mapkap kinase-2 as a specific target for blocking proliferation of P53-defective cells” (Massachusetts Institute of Technology, priority 2004, dated 2013)
